Experimental data as given in publication PMC8248988, “A signal capture and proofreading mechanism for the KDEL-receptor explains selectivity and dynamic range in ER retrieval” (eLife, 2021).

Key:
Type in all cases: cell-based
Details in all cases: COS-7 cells
human KDELR1 N54K/E117Q = target: T1, human KDELR1 N54K/E117Q (Homo sapiens, UniProt P24390, E117Q/N54K); assay: ER retrieval assay, KDELR1 N54K/E117Q-GFP
T1 construct: expressed in transfected cells; host or cells: COS-7
Text: (§1) To create KDELR1-GFP and KDELR2-GFP, the reading frames for Homo sapiens KDELR1 (Uniprot: P24390) and KDELR2 (Uniprot: P33947) were cloned into the pEF5/FRT low level mammalian expression vector with a C-terminal 20 amino acid linker made up of 5 copies of Gly-Ser-Ser-Ser followed by GFP. Specific point mutations were introduced using the Quickchange protocol (Stratagene) and are described in the key resources table and figures. To create the mScarlet-KDEL^sec ligand construct, mScarlet with an N-terminal hGH signal peptide and the 16 C-terminal residues of human BiP at its C-terminus, containing the KDEL signal, was cloned into the pcDNA3.1 vector. […] The Golgi marker protein TGN46 was detected by antibody (sheep anti-TGN46 AHP500G; AbD Serotec) and an Alexa 647 conjugated secondary anti-sheep secondary (A-21448, Invitrogen). In Figure 1d and e, endogenous KDELR was detected by antibody (mouse anti-KDELR ADI-VAA-PT048; Enzo Life Sciences) and Alexa 488 conjugated anti-mouse secondary antibody (A-21202, Invitrogen). For retrieval assays in other figures, KDELR-GFP fusion proteins were directly detected by fluorescence. The mScarlet-xDEL fusion proteins were directly detected by fluorescence. […] The fraction of KDEL receptor in the Golgi apparatus was calculated by dividing the Golgi signal by the total cell signal. […]

human KDELR1 E117N = target: T2, human KDELR1 E117N (Homo sapiens, UniProt P24390, E117N); assay: ER retrieval assay, KDELR1 E117N-GFP
T2 construct: expressed in transfected cells; host or cells: COS-7
T2 sequence (P24390 whole entry E117N): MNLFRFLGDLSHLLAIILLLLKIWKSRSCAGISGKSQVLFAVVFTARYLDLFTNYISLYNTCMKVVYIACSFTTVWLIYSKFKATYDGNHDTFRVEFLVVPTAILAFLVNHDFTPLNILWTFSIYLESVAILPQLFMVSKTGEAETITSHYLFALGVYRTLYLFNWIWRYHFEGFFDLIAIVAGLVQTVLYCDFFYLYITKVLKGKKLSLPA
Text: as §1

human KDELR1 E117A = target: T3, human KDELR1 E117A (Homo sapiens, UniProt P24390, E117A); assay: ER retrieval assay, KDELR1 E117A-GFP
T3 construct: expressed in transfected cells; host or cells: COS-7
T3 sequence (P24390 whole entry E117A): as the sequence (P24390 whole entry E117N) above, with N117A counted along it
Text: as §1

T1 sequence (P24390 whole entry N54K/E117Q): as the sequence (P24390 whole entry E117N) above, with N54K, N117Q counted along it

ligand-induced receptor retrieval to the ER (in words) (human KDELR1 E117N): move to the ER | ligand-induced receptor retrieval to the ER (in words) (human KDELR1 E117A): relocated to the ER
Substance: ADEL [pcDNA3.1 hGHss-mScarlet-H. sapiens BiP639-654K651A (ADEL^SEC), secreted mScarlet fusion with human BiP C-terminus, ADEL signal]
ligand-induced receptor retrieval to the ER (in words) (human KDELR1 N54K/E117Q): switched specificity towards ADEL and DDEL
